{"source": "the supplement of paper PMC10307832", "data": [{"compound": "N[C@@H]1CCCN(c2c(/C=C3\\SC(=O)NC3=O)cccc2-c2ccccc2)C1 [AZD1208] + C[C@]1(O)C[C@@H](c2nc(-c3ccc4ccc(-c5ccccc5)nc4c3)c3c(N)nccn32)C1 [Linsitinib] (partner 1 µM)", "assay": "relative viability (nuclei count vs DMSO), 5 days (fraction); higher = more cells survive", "details": "first compound 8 µM", "procedure,_shortened": "(§1)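 Nuclei were stained with Hoechst during a one-step fixation (final 0.05% Triton X-100, 1% formaldehyde, 1 ug/ml Hoechst) carried out 5 days after dosing, then counted on 4× images. The cells, lung cancer lines in 1536-well plates, had been dosed by pin tool the day after seeding with one drug alone or a fixed anchor-drug dose plus five library-drug doses (not always all listed) in √10 steps. Relative viability is the nuclei count in treated wells divided by that in vehicle wells, and each value is the median of duplicate plates.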", "values": [{"cell line": "HCC-827", "relative viability": 1.02}, {"cell line": "LXF-289", "relative viability": 1.01}, {"cell line": "NCI-H2347", "relative viability": 0.909}, {"cell line": "NCI-H650", "relative viability": 0.71}, {"cell line": "CAL-12T", "relative viability": 0.909}, {"cell line": "NCI-H1651", "relative viability": 0.83}, {"cell line": "EPLC-272H", "relative viability": 1.09}, {"cell line": "NCI-H23", "relative viability": 0.461}, {"cell line": "NCI-H1792", "relative viability": 0.467}, {"cell line": "NCI-H1355", "relative viability": 0.695}, {"cell line": "NCI-H322M", "relative viability": 0.84}, {"cell line": "NCI-H1437", "relative viability": 0.866}, {"cell line": "NCI-H1755", "relative viability": 0.95}, {"cell line": "NCI-H2085", "relative viability": 0.946}, {"cell line": "HCC-15", "relative viability": 0.655}]}, {"compound": "CN1CCN(CC1)C2=CC(=C(C=C2)NC3=NC(=C(S3)C(=O)C4=C(C=CC=C4Cl)Cl)N)OC [XMD14-99] + Cc1nc(NC(=O)N2CCC[C@H]2C(N)=O)sc1-c1ccnc(C(C)(C)C(F)(F)F)c1 [Alpelisib] (partner 2 µM)", "assay": "relative viability (nuclei count vs DMSO), 5 days (fraction); higher = more cells survive", "details": "first compound 0.08 µM", "procedure,_shortened": "as §1", "values": [{"cell line": "NCI-H441", "relative viability": 0.773}, {"cell line": "LCLC-97TM1", "relative viability": 0.263}, {"cell line": "NCI-H2023", "relative viability": 0.614}, {"cell line": "A-427", "relative viability": 1.09}, {"cell line": "NCI-H460", "relative viability": 0.36}, {"cell line": "NCI-H727", "relative viability": 0.553}, {"cell line": "NCI-H1734", "relative viability": 0.659}, {"cell line": "NCI-H520", "relative viability": 0.83}, {"cell line": "NCI-H2405", "relative viability": 0.792}, {"cell line": "SW 1573", "relative viability": 0.8}, {"cell line": "NCI-H1395", "relative viability": 1.07}, {"cell line": "201T", "relative viability": 0.998}, {"cell line": "NCI-H1915", "relative viability": 1.09}, {"cell line": "HCC-827", "relative viability": 1.05}, {"cell line": "LXF-289", "relative viability": 1}, {"cell line": "NCI-H2347", "relative viability": 0.995}, {"cell line": "NCI-H650", "relative viability": 1.15}, {"cell line": "CAL-12T", "relative viability": 1.49}, {"cell line": "NCI-H1651", "relative viability": 0.841}, {"cell line": "EPLC-272H", "relative viability": 0.938}, {"cell line": "NCI-H23", "relative viability": 0.608}, {"cell line": "NCI-H1792", "relative viability": 0.688}, {"cell line": "NCI-H1355", "relative viability": 0.928}, {"cell line": "NCI-H322M", "relative viability": 0.889}, {"cell line": "NCI-H1437", "relative viability": 0.881}, {"cell line": "NCI-H1755", "relative viability": 0.945}, {"cell line": "NCI-H2085", "relative viability": 0.92}, {"cell line": "HCC-15", "relative viability": 0.906}]}, {"compound": "CN1CCN(CC1)C2=CC(=C(C=C2)NC3=NC(=C(S3)C(=O)C4=C(C=CC=C4Cl)Cl)N)OC [XMD14-99] + Cc1nc(NC(=O)N2CCC[C@H]2C(N)=O)sc1-c1ccnc(C(C)(C)C(F)(F)F)c1 [Alpelisib] (partner 2 µM)", "assay": "relative viability (nuclei count vs DMSO), 5 days (fraction); higher = more cells survive", "details": "first compound 0.8 µM", "procedure,_shortened": "as §1", "values": [{"cell line": "NCI-H441", "relative viability": 0.598}, {"cell line": "LCLC-97TM1", "relative viability": 0.201}, {"cell line": "NCI-H2023", "relative viability": 0.527}, {"cell line": "A-427", "relative viability": 1.08}, {"cell line": "NCI-H460", "relative viability": 0.419}, {"cell line": "NCI-H727", "relative viability": 0.513}, {"cell line": "NCI-H1734", "relative viability": 0.704}, {"cell line": "NCI-H520", "relative viability": 0.843}, {"cell line": "NCI-H2405", "relative viability": 0.895}, {"cell line": "SW 1573", "relative viability": 0.737}, {"cell line": "NCI-H1395", "relative viability": 1.17}, {"cell line": "201T", "relative viability": 1}, {"cell line": "NCI-H1915", "relative viability": 0.984}, {"cell line": "HCC-827", "relative viability": 0.902}, {"cell line": "LXF-289", "relative viability": 0.971}, {"cell line": "NCI-H2347", "relative viability": 0.984}, {"cell line": "NCI-H650", "relative viability": 0.982}, {"cell line": "CAL-12T", "relative viability": 1.13}, {"cell line": "NCI-H1651", "relative viability": 0.836}, {"cell line": "EPLC-272H", "relative viability": 1.01}, {"cell line": "NCI-H23", "relative viability": 0.657}, {"cell line": "NCI-H1792", "relative viability": 0.734}, {"cell line": "NCI-H1355", "relative viability": 0.893}, {"cell line": "NCI-H322M", "relative viability": 0.709}, {"cell line": "NCI-H1437", "relative viability": 0.804}, {"cell line": "NCI-H1755", "relative viability": 0.908}, {"cell line": "NCI-H2085", "relative viability": 0.866}, {"cell line": "HCC-15", "relative viability": 0.883}]}, {"compound": "CN1CCN(CC1)C2=CC(=C(C=C2)NC3=NC(=C(S3)C(=O)C4=C(C=CC=C4Cl)Cl)N)OC [XMD14-99] + Cc1nc(NC(=O)N2CCC[C@H]2C(N)=O)sc1-c1ccnc(C(C)(C)C(F)(F)F)c1 [Alpelisib] (partner 2 µM)", "assay": "relative viability (nuclei count vs DMSO), 5 days (fraction); higher = more cells survive", "details": "first compound 2.53 µM", "procedure,_shortened": "as §1", "values": [{"cell line": "NCI-H441", "relative viability": 0.68}, {"cell line": "LCLC-97TM1", "relative viability": 0.202}, {"cell line": "NCI-H2023", "relative viability": 0.646}, {"cell line": "A-427", "relative viability": 0.954}, {"cell line": "NCI-H460", "relative viability": 0.431}, {"cell line": "NCI-H727", "relative viability": 0.447}, {"cell line": "NCI-H1734", "relative viability": 0.738}, {"cell line": "NCI-H520", "relative viability": 0.83}, {"cell line": "NCI-H2405", "relative viability": 0.809}, {"cell line": "SW 1573", "relative viability": 0.697}, {"cell line": "NCI-H1395", "relative viability": 1.05}, {"cell line": "201T", "relative viability": 0.841}, {"cell line": "NCI-H1915", "relative viability": 0.955}, {"cell line": "HCC-827", "relative viability": 0.948}, {"cell line": "LXF-289", "relative viability": 1.02}, {"cell line": "NCI-H2347", "relative viability": 0.958}, {"cell line": "NCI-H650", "relative viability": 0.922}, {"cell line": "CAL-12T", "relative viability": 1.15}, {"cell line": "NCI-H1651", "relative viability": 1.09}, {"cell line": "EPLC-272H", "relative viability": 0.928}, {"cell line": "NCI-H23", "relative viability": 0.69}, {"cell line": "NCI-H1792", "relative viability": 0.627}, {"cell line": "NCI-H1355", "relative viability": 0.68}, {"cell line": "NCI-H322M", "relative viability": 0.64}, {"cell line": "NCI-H1437", "relative viability": 0.787}, {"cell line": "NCI-H1755", "relative viability": 0.886}, {"cell line": "NCI-H2085", "relative viability": 0.889}, {"cell line": "HCC-15", "relative viability": 0.827}]}, {"compound": "CN1CCN(CC1)C2=CC(=C(C=C2)NC3=NC(=C(S3)C(=O)C4=C(C=CC=C4Cl)Cl)N)OC [XMD14-99] + Cc1nc(NC(=O)N2CCC[C@H]2C(N)=O)sc1-c1ccnc(C(C)(C)C(F)(F)F)c1 [Alpelisib] (partner 2 µM)", "assay": "relative viability (nuclei count vs DMSO), 5 days (fraction); higher = more cells survive", "details": "first compound 8 µM", "procedure,_shortened": "as §1", "values": [{"cell line": "NCI-H441", "relative viability": 0.706}, {"cell line": "LCLC-97TM1", "relative viability": 0.202}, {"cell line": "NCI-H2023", "relative viability": 0.534}, {"cell line": "A-427", "relative viability": 0.9}, {"cell line": "NCI-H460", "relative viability": 0.197}, {"cell line": "NCI-H727", "relative viability": 0.407}, {"cell line": "NCI-H1734", "relative viability": 0.584}, {"cell line": "NCI-H520", "relative viability": 0.707}, {"cell line": "NCI-H2405", "relative viability": 0.416}, {"cell line": "SW 1573", "relative viability": 0.651}, {"cell line": "NCI-H1395", "relative viability": 0.883}, {"cell line": "201T", "relative viability": 0.952}, {"cell line": "NCI-H1915", "relative viability": 0.925}, {"cell line": "HCC-827", "relative viability": 0.741}, {"cell line": "LXF-289", "relative viability": 0.835}, {"cell line": "NCI-H2347", "relative viability": 0.572}, {"cell line": "NCI-H650", "relative viability": 0.922}, {"cell line": "CAL-12T", "relative viability": 1.03}, {"cell line": "NCI-H1651", "relative viability": 0.917}, {"cell line": "EPLC-272H", "relative viability": 0.92}, {"cell line": "NCI-H23", "relative viability": 0.491}, {"cell line": "NCI-H1792", "relative viability": 0.474}, {"cell line": "NCI-H1355", "relative viability": 0.657}, {"cell line": "NCI-H322M", "relative viability": 0.767}, {"cell line": "NCI-H1437", "relative viability": 0.671}, {"cell line": "NCI-H1755", "relative viability": 0.648}, {"cell line": "NCI-H2085", "relative viability": 0.728}, {"cell line": "HCC-15", "relative viability": 0.657}]}, {"compound": "N[C@@H]1CCCN(c2c(/C=C3\\SC(=O)NC3=O)cccc2-c2ccccc2)C1 [AZD1208] + CC(=O)Nc1cccc(-n2c(=O)n(C3CC3)c(=O)c3c(Nc4ccc(I)cc4F)n(C)c(=O)c(C)c32)c1 [Trametinib] (partner 0.02 µM)", "assay": "relative viability (nuclei count vs DMSO), 5 days (fraction); higher = more cells survive", "details": "first compound 0.08 µM", "procedure,_shortened": "as §1", "values": [{"cell line": "NCI-H441", "relative viability": 0.515}, {"cell line": "LCLC-97TM1", "relative viability": 0.21}, {"cell line": "NCI-H2023", "relative viability": 0.601}, {"cell line": "A-427", "relative viability": 0.622}, {"cell line": "NCI-H460", "relative viability": 0.137}]}]}
